Source: patent publication US20240018129A1, “COMPOUNDS AS PU. 1 INHIBITORS” (PEKING UNIVERSITY, priority 2020, published 2024)

Experiments:
NASH diet-induced NASH = NASH diet-induced NASH model; assay type: in vivo, mouse
Description: (§1) Methods: To evaluate the potential therapeutic effects of compound I-1 on liver disorders, including liver fat steatosis and accumulation, nonalcoholic fatty liver disease (NAFLD), nonalcoholic steatosis hepatitis (NASH), and liver fibrosis, three mice models (C57BL/6, male, 8 weeks old) were used. (I) NASH diet (Code.TD.160785, ENVIGO, USA)-induced NASH model: All mice were fed with NASH diet for 10 weeks. Mice were then randomly distributed into three groups, and each group was assigned to be injected daily with vehicle, compound I-1 (2.5mpk or 5mpk, i.p.), or DB1976 (2.5mpk, i.p, as a positive control) for another 6 weeks on continuous NASH diet. A group with normal regular diet was treated with vehicle as health control. (II) High-fat diet (HFD) combinate with CCl4 (lower dose)—induced NASH model. Mice were fed with normal regular diet or HFD (kcal fat 60%—D12492, research diets) for 10 weeks, then the HFD mice were divided into two groups randomly based on the rule of minimum weight differences. Each group was assigned to be injected with CCl4 (25% v/v in olive oil, 0.5 mL/kg body weight) or pure olive oil (i.p.) twice a week for 4 weeks. Compound 1-1 or vehicle (saline) were injected (i.p.) once daily for 4 weeks at the same time with CCl4 under continuous HFD. (III) CCl4 (higher dose)—induced liver fibrosis model. Liver fibrosis was induced by CCl4 injection (20% v/v in olive oil, 10 mL/kg body weight) twice a week for 6 weeks, compound I-1 or vehicle are also injected (i.p.) once daily for 6 weeks at the same time with CCl4 application. Ail the mice in the above-mentioned three models were observed daily. After the last day of treatment of all the models, mice were fasted overnight and euthanized. Serum was collected after centrifuging of the whole blood at 4 degrees, and blood biochemistry parameters were tested through automatic biochemical instrument (BS-240VET, Mindray). Part of liver tissues were fixed with paraformaldehyde, embedded with paraffin, and then sliced for H&E or Sirius red staining to check pathological features, and NAFLD scores. Kleiner, D. E. et al. Hepatology 41, 1313-1321, doi:10.1002/hep.20701 (2005). Part of liver tissues were used fresh, embedded in optimum cutting temperature compound, and sectioned. The sections were stained with 0.5% oil red 0 according to standard procedures after fixed in 4% paraformaldehyde in PBS. Another part of liver tissues were collected and stored in −80° C. after liquid nitrogen quick-freezing, RNA. isolation (Code.R6934, OMEGA., USA), first cDNA reverse (Code.AT341, TransGen, China), SYBR mix (Code.AQ601, TransGen, China) for Q-PCR (LightCycler®96, Roche) to verify genes mRNA level, such as, fibrosis-related genes, Col1a1 and Col1a2; inflammation-related genes, IL-6 and IL-1β.

PU.1 = biological target: T1, PU.1 (Mus musculus, UniProt P17433); assay: q-PCR of TIM-3 expression in Blast-PU.1 cells (PU.1 inhibition potency); assay type: cell-based
T1 construct: EGFP (from 'PU.1-EGFP-vector'); expressed in transfected cells
Description: An acute T cell lymphoblastic leukemia (T-ALL) disease model was used to evaluate the effect of the newly synthesized compounds on PU.1 inhibition. Pten, a famous tumor suppressor gene, was […] deleted in mouse hematopoietic stem cells and their differentiated progeny, and this would eventually lead to a progressive T-ALL in about two months from born. It is believed that immune checkpoint T cell immunoglobulin mucin-3 (TIM-3), a surface marker for the isolation of pure leukemia-initiating cells (LICs), is transcriptionally regulated by transcription factor PU.1 in the Pten-null T-ALL model. Therefore, the expression level of TIM-3 was detected and quantified to characterize the inhibition potency of the compounds after 24 h treatment of graded concentrations of compounds. Blast cells were transfected with either PU.1-EGFP-vector or EGFP-vector to yield stable cell lines blast-PU.1 and blast-EGFP, respectively. These cell lines were used for compound testing in vitro. Compounds DB1976 and DB2115 were tested as well for comparison. Blast-PU.1 and blast-EGFP are the ideal cell lines for compounds testing in vitro, since they are T-ALL blast cells with […] TIM-3 and PU.1 expression level.

[1] = tested on: CCl4-induced liver fibrosis; assay: CCl4 (higher dose)-induced liver fibrosis model; assay type: in vivo, mouse; conditions: 5mpk or 10mpk i.p. once daily for 6 weeks
Description: as §1, with “Kleiner, D. E. et al. Hepatology 41, 1313-1321, doi:10.1002/hep.20701 (2005). Part of liver tissues were used fresh, embedded in optimum cutting temperature compound, and sectioned. The sections were stained with 0.5% oil red 0 according to standard procedures after fixed in 4% paraformaldehyde in PBS. Another part of liver tissues were collected and stored in −80° C. after liquid nitrogen quick-freezing, RNA. isolation (Code.R6934, OMEGA., USA), first cDNA reverse (Code.AT341, TransGen, China), SYBR mix (Code.AQ601, TransGen, China) for Q-PCR (LightCycler®96, Roche) to verify genes mRNA level, such as, fibrosis-related genes, Col1a1 and Col1a2; inflammation-related genes, IL-6 and IL-1β.” left out

[2] = tested on: bleomycin-induced skin fibrosis; assay: bleomycin-induced skin fibrosis, preventive and therapeutic models; assay type: in vivo, mouse
Description: Methods: To evaluate the preventive and therapeutic effects of compound I-1 on skin fibrosis, bleomycin was used to establish two animal models of skin fibrosis with different drug intervention (6-8 weeks, C57BL/6, male). Skin fibrosis was induced by local injection of bleomycin (0.5 mg/mL, 0.1 ml/mouse) in a skin defined area (˜1 cm^2), where the hair was removed in advance, at the upper back every other day. Subcutaneous saline injections served as controls. (I) Preventive model of bleomycin-induced skin fibrosis: Compound I-1, positive control DB1976, or vehicle (saline) were injected i.p. simultaneously with bleomycin for 4 weeks (FIG. 3a). (II) Therapeutic model of bleomycin-induced skin fibrosis: Mice were pre-charged with bleomycin for 3 weeks to induce skin fibrosis, then treated with compound I-1, positive control DB1976, or vehicle (saline) for another 3 weeks, total time is 6 weeks after the first bleomycin treatment (FIG. 30. After the last day of treatment of both models, mice were fasted overnight and euthanized. Part of the skin was fixed with paraformaldehyde after fully flat on a foil, embedded with paraffin, and then sliced for H&E, Sirius red and Masson staining to check pathological features. The epidermal thickness of each sample was calculated quantitatively with image J. Another part of skin was collected and stored at −80° C. after liquid nitrogen quick-freezing, RNA isolation (Code.R6934, OMEGA, USA), first cDNA reverse (Code.AT341, TransGen, China), SYBR mix (Code.AQ601, TransGen, China) for Q-PCR (LightCycler® 96, Roche) to verify several fibrosis-related genes mRNA level, such as, Col1a1 and Col1a2.

[3] = tested on: T-ALL blast cells and TIM-3-high LICs; assay: Pten-null T-ALL mouse model, compound I-1 and/or rapamycin treatment
Description: To generate a Pten-null T-ALL mouse model, Pten was 40% deleted in mouse fetal liver hematopoietic stem cells (HSCs), followed by PI3K-AKT pathway activation, hematopoietic disorder and T-ALL development. In the T-ALL crisis stage, T-ALL blasts and LICs would infiltrate mouse hematopoietic organs and non-hematopoietic organs.
After treatment, hematopoietic and non-hematopoietic organ morphology of the mice was analyzed using hematoxylin-eosin (H&E) staining.

[4] = preventive model, 5mpk i.p., 4 weeks

Q: Which results are given for `N=C(N)c1ccc2nc(-c3ccc(NC(=O)[C@@H]4CCCN4C(=O)[C@@H]4CCCN4C(=O)c4ccc(-c5nc6ccc(C(=N)N)cc6[nH]5)cc4)cc3)[nH]c2c1` [Compound I-1, (S)-1-((4-(6-carbamimidoyl-1H-benzo[d]imidazol-2-yl)benzoyl)-L-prolyl)-N-(4-(6-carbamimidoyl-1H-benzo[d]imidazol-2-yl)phenyl)pyrrolidine-2-carboxamide]?
A: efficacy when comparing with DB1976 (2.5mpk) (NASH diet-induced NASH; 2.5mpk i.p. daily for 6 weeks): lower efficacy; fat accumulation in liver (NASH diet-induced NASH; 2.5mpk i.p. daily for 6 weeks): decreased; metabolic disturbance by NASH diet (body weight, liver fat, ALT, LDL-C, TC, IL-6, IL-1β, Col1a1, Col1a2) (NASH diet-induced NASH; 2.5mpk i.p. daily for 6 weeks): tendency to alleviate; mRNA levels of IL-6, IL-1β and Col1a1, Col1a2 (NASH diet-induced NASH; 2.5mpk i.p. daily for 6 weeks, liver): lower; metabolic disturbance by NASH diet (body weight, liver fat, ALT, LDL-C, TC, IL-6, IL-1β, Col1a1, Col1a2) (NASH diet-induced NASH; 5mpk i.p. daily for 6 weeks): potently alleviated; downregulated the expression level of TIM-3 (PU.1; 10 nM, 24 h treatment, Blast-PU.1 cell line, q-PCR): 40%; activity in terms of PU.1-mediated TIM-3 inhibition, compared among tested compounds (PU.1; Blast-PU.1 cells): best activity; CCl4-induced liver fibrosis [1]: alleviated; collagen deposition and Sirius red-positive area [1]: significantly decreased; inordinate mRNA level and blood biochemistry induced by CCl4 application [1]: ameliorated; skin fibrosis progress ([2]; preventive model, 5mpk i.p. simultaneously with bleomycin for 4 weeks, vs bleomycin/vehicle): significantly prevented; collagen deposition [2, 4]: reducing; epidermal thickness [2, 4]: reducing; mRNA level of Col1a1 and Col1a2 ([2]; preventive model, 5mpk i.p., 4 weeks, skin): decreasing; bleomycin-induced skin fibrosis ([2]; therapeutic model, 3 weeks bleomycin then 3 weeks treatment, 5mpk): significantly alleviated and reversed; TIM-3 high LICs proportion ([3]; after two days' treatment, bone marrow, without treatment 33.5%): 6.15%; reduction of proportion of blasts (in words) ([3]; after two days' treatment, bone marrow, spleen and thymus): did not reduce; organ morphology (H&E staining) compared with T-ALL group ([3]; treated at blast crisis stage for one month, thymus and spleen): no significant changes
